Assay results: PubChem BioAssay AID330 (DTP/NCI, 2004)
Values joined by “and” are separate entries in the source; they are usually repeats but may differ in a detail not shown here. Identical values can stand only once. Toxic doses and inconclusive results are not listed. Rule for the calls: active = survival T/C of 150% or more; inactive = T/C below 125% in these data. Peptide text beside a SMILES is read from it. * marks the point of attachment. Cbz = O=C(OCc1ccccc1)*; βAla = NCCC(=O)O

Test system: P388 leukemia ip, CD2F1 mice, survival T/C
Assay: NCI In Vivo Anticancer Drug Screen. Data for tumor model P388 Leukemia (intraperitoneal) in CD2F1 (CDF1) mice
Settings: endpoint: median survival time, higher = longer survival
Summary of the method: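 Mice carrying the transplanted tumor received test compound or vehicle. Survival was recorded in each group, and the value is the treated-group measurement divided by that of the vehicle-treated control group.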

[1] = dose: 50.0 mg/kg/injection, schedule: Q01DX005 (ip), vehicle: Klucel (hydroxypropylcellulose) (HPC)
[2] = dose: 100.0 mg/kg/injection, schedule: Q01DX005 (ip), vehicle: Klucel (hydroxypropylcellulose) (HPC)
[3] = dose: 200.0 mg/kg/injection, schedule: Q01DX005 (ip), vehicle: Klucel (hydroxypropylcellulose) (HPC)
[4] = dose: 12.5 mg/kg/injection, schedule: Q01DX009 (ip), vehicle: saline
[5] = dose: 25.0 mg/kg/injection, schedule: Q01DX009 (ip), vehicle: saline
[6] = dose: 50.0 mg/kg/injection, schedule: Q01DX009 (ip), vehicle: saline
[7] = dose: 50.0 mg/kg/injection, schedule: Q01DX005 (ip), vehicle: saline with Tween-80
[8] = dose: 100.0 mg/kg/injection, schedule: Q01DX005 (ip), vehicle: saline with Tween-80
[9] = dose: 200.0 mg/kg/injection, schedule: Q01DX005 (ip), vehicle: saline with Tween-80
[10] = dose: 60.0 mg/kg/injection, schedule: Q01DX005 (ip), vehicle: saline with Tween-80
[11] = dose: 120.0 mg/kg/injection, schedule: Q01DX005 (ip), vehicle: saline with Tween-80
[12] = dose: 240.0 mg/kg/injection, schedule: Q01DX005 (ip), vehicle: saline with Tween-80

Measured: T/C

CNNC(=O)OC
inactive: dose: 25.0 mg/kg/injection, schedule: Q01DX002 (ip), vehicle: saline 101 % of control | dose: 50.0 mg/kg/injection, schedule: Q01DX002 (ip), vehicle: saline 102 % of control | dose: 100.0 mg/kg/injection, schedule: Q01DX002 (ip), vehicle: saline 120 % of control

Nc1nc(C2CCCC2)c(Br)c(=O)[nH]1
inactive: [1] 101 % of control | [2] 103 % of control | [3] 105 % of control

Nc1ccc2c(c1)Cc1cc(NC=O)ccc1-2
inactive: [4] 94 % of control | [5] 91 % of control | [6] 91 % of control | dose: 100.0 mg/kg/injection, schedule: Q01DX009 (ip), vehicle: saline 91 % of control

O=C(O)CNC(=O)CNC(=O)CCNC(=O)OCc1ccccc1 ({Cbz-βAla}-Gly-Gly-OH)
inactive: [7] 101 % of control | [8] 97 % of control | [9] 108 % of control

COc1ccc(CCNC(=O)C(Sc2ccccn2)c2ccccc2)cc1OC (stereo unspecified)
inactive: [1] 94 % of control | [2] 103 % of control | [3] 98 % of control

N#CC1Sc2ccccc2N1C(=O)OCc1ccccc1 (stereo unspecified)
inactive: [10] 93 % of control | [11] 92 % of control | [12] 91 % of control

CN1C2CCC1CC(O)(c1ccc(Cl)cc1)C2 (stereo unspecified)
inactive: dose: 12.5 mg/kg/injection, schedule: Q01DX005 (ip), vehicle: Klucel (hydroxypropylcellulose) (HPC) 100 % of control | dose: 25.0 mg/kg/injection, schedule: Q01DX005 (ip), vehicle: Klucel (hydroxypropylcellulose) (HPC) 100 % of control | [1] 107 % of control | [2] 109 % of control

O=P1(N2CCOCC2)OC(c2ccccc2)=CCN1c1ccc(Cl)cc1 (stereo unspecified)
inactive: [1] 104 % of control | [2] 100 % of control | [3] 95 % of control

CCC1OC(/C(C)=C/C(C)/C=C/C2C(C)C2/C=C/C2OC(CC(=O)O)CC(O)C2O)CC=C1C (stereo unspecified)
inactive: dose: 16.82 mg/kg/injection, schedule: Q01DX009 (ip), vehicle: saline 100 % of control | dose: 33.65 mg/kg/injection, schedule: Q01DX009 (ip), vehicle: saline 92 % of control | dose: 67.3 mg/kg/injection, schedule: Q01DX009 (ip), vehicle: saline 94 % of control

CCOC(=O)n1c2ccccc2c(=O)n1CCO
inactive: [10] 105 % of control | [11] 97 % of control | [12] 91 % of control

Cc1cccc(NC(=S)/N=C(\SCc2ccccc2)N(C)c2ccccc2)c1
inactive: [7] 90 % of control | [8] 93 % of control

CC(=O)CC(=O)CCCCCCC(=O)O
inactive: dose: 50.0 mg/kg/injection, schedule: Q01DX009 (ip), vehicle: saline with Tween-80 103 % of control | dose: 100.0 mg/kg/injection, schedule: Q01DX009 (ip), vehicle: saline with Tween-80 100 % of control | dose: 200.0 mg/kg/injection, schedule: Q01DX009 (ip), vehicle: saline with Tween-80 100 % of control

CC(C)c1ccc([C](C)(CC(C)(C)C)[Sn]([CH3])([CH3])[CH3])cc1 (stereo unspecified)
inactive: dose: 3.13 mg/kg/injection, schedule: Q04DX003 (ip), vehicle: Klucel (hydroxypropylcellulose) (HPC) 105 % of control | dose: 6.25 mg/kg/injection, schedule: Q04DX003 (ip), vehicle: Klucel (hydroxypropylcellulose) (HPC) 92 % of control | dose: 12.5 mg/kg/injection, schedule: Q04DX003 (ip), vehicle: Klucel (hydroxypropylcellulose) (HPC) 91 % of control

O=C(CCCl)Nc1c(Cl)cccc1Cl
inactive: [7] 96 % of control | [8] 99 % of control | [9] 96 % of control

Cc1cc(N)c(C)c2ccncc12
inactive: dose: 0.63 mg/kg/injection, schedule: Q01DX009 (ip), vehicle: saline with Tween-80 100 % of control | dose: 1.25 mg/kg/injection, schedule: Q01DX009 (ip), vehicle: saline with Tween-80 90 % of control | dose: 2.5 mg/kg/injection, schedule: Q04DX003 (ip), vehicle: saline with Tween-80 104 % of control

C=CC(c1ccccc1)c1cc2c(cc1OCC)OCO2 (stereo unspecified)
inactive: [1] 105 % of control | [2] 100 % of control | [3] 94 % of control

Nc1nc(N)c2nc(SCc3ccc(Cl)cc3)c(N)nc2n1
inactive: dose: 15.0 mg/kg/injection, schedule: Q01DX005 (ip), vehicle: Klucel (hydroxypropylcellulose) (HPC) 88 % of control | dose: 30.0 mg/kg/injection, schedule: Q01DX005 (ip), vehicle: Klucel (hydroxypropylcellulose) (HPC) 88 % of control | dose: 60.0 mg/kg/injection, schedule: Q01DX005 (ip), vehicle: Klucel (hydroxypropylcellulose) (HPC) 103 % of control | dose: 120.0 mg/kg/injection, schedule: Q01DX005 (ip), vehicle: Klucel (hydroxypropylcellulose) (HPC) 88 % of control | dose: 240.0 mg/kg/injection, schedule: Q01DX005 (ip), vehicle: Klucel (hydroxypropylcellulose) (HPC) 94 % of control

CN(C)C(C(N(C)C)=[N+](C)C)=[N+](C)C
inactive: [4] 108 % of control and 109 % of control and 89 % of control | [5] 110 % of control and 111 % of control | [6] 100 % of control and 103 % of control and 88 % of control

Cc1[nH]n(-c2ccccc2)c(=O)c1N=Nc1cccc(C(F)(F)F)c1
inactive: dose: 100.0 mg/kg/injection, schedule: Q04DX002 (ip), vehicle: saline 92 % of control | dose: 200.0 mg/kg/injection, schedule: Q04DX002 (ip), vehicle: saline 99 % of control | dose: 400.0 mg/kg/injection, schedule: Q04DX002 (ip), vehicle: saline 100 % of control

CC12CCC(O1)C1C(=O)NC(=O)C12 (stereo unspecified)
inactive: dose: 50.0 mg/kg/injection, schedule: Q01DX005 (ip), vehicle: saline 102 % of control | dose: 100.0 mg/kg/injection, schedule: Q01DX005 (ip), vehicle: saline 108 % of control | dose: 200.0 mg/kg/injection, schedule: Q01DX005 (ip), vehicle: saline 100 % of control

CCOC(OCC)c1cccc([N+](=O)[O-])c1
inactive: dose: 100.0 mg/kg/injection, schedule: Q04DX003 (ip), vehicle: saline with Tween-80 112 % of control | dose: 200.0 mg/kg/injection, schedule: Q04DX003 (ip), vehicle: saline with Tween-80 106 % of control | dose: 400.0 mg/kg/injection, schedule: Q04DX003 (ip), vehicle: saline with Tween-80 117 % of control
